Reference: patent publication US20190240187A1, “ORAL PREPARATIONS WITH OMEPRAZOLE OR PANTOPRAZOLE” (SYMRISE AG, priority 2015, published 2019)

Experiment: Bitter masking test: aqueous omeprazole solutions tasted by a panel in duo comparison tests
Assay type: in vivo
Conditions: 500 ppm omeprazole; for Masking effect on the bitterness of omeprazole (in words): 100 ppm additive
From the text: To test the bitter masking effect, aqueous solutions, each containing 500 ppm omeprazole
(V1) alone or together (1) with 100 ppm eriodyctiol (ED) or (2) with 100 ppm homoeriodyctiol sodium salt (HE) or (3) with 100 ppm eriodyctiol+100 ppm homoeriodyctiol sodium salt or (V4) with 100 ppm 4′-fluoro-6-methoxyflavanone as a reference substance that has no masking effect, were tasted. Solutions 2-5 were each tasted by an experienced panel of 20-30 testers in a randomized order against solution 1 in duo comparison tests and the bitterness of each sample was estimated on a scale of 0 to 100.

| SMILES | Masking effect on the bitterness of omeprazole (in words) | Bitterness (mean panel estimate (20-30 testers) on a scale of 0 to 100, aqueous solution, additives 100 ppm each) |
| --- | --- | --- |
| O=C1CC(c2ccc(O)c(O)c2)Oc2cc(O)cc(O)c21 (stereo not drawn) [ED, 2-(3,4-dihydroxyphenyl)-5,7-dihydroxy-4-chronnanone] | act on their own as masking agents |  |
| COc1cc(C2CC(=O)c3c(O)cc(O)cc3O2)ccc1O (stereo not drawn) [HE, 5-7-dihydroxy-2-(4-hydroxy-3-methoxyphenyl)-4-chronnanone] | act on their own as masking agents |  |
| COc1ccc2[nH]c([S+]([O-])Cc3ncc(C)c(OC)c3C)nc2c1 (racemic) [Example V1, (RS)-5-methoxy-2-[(4-methoxy-3,5-dimethylpyridin-2-yl)methanesulfinyl]-1H-benzoinnidazole, reference compound] |  | 80 |
